Active and inactive are the calls of the source. The calls are words filed in the database; no cut-off is given here.
Tests used:
[1] = molecular target: T1, Pancreatic alpha-amylase (Sus scrofa) (UniProt P00690); test: Inhibition of pig pancreatic alpha-amylase assessed as maltose release from starch at 5 mg/cm'3 after 10 mins by DNSA assay
T1 sequence (whole entry): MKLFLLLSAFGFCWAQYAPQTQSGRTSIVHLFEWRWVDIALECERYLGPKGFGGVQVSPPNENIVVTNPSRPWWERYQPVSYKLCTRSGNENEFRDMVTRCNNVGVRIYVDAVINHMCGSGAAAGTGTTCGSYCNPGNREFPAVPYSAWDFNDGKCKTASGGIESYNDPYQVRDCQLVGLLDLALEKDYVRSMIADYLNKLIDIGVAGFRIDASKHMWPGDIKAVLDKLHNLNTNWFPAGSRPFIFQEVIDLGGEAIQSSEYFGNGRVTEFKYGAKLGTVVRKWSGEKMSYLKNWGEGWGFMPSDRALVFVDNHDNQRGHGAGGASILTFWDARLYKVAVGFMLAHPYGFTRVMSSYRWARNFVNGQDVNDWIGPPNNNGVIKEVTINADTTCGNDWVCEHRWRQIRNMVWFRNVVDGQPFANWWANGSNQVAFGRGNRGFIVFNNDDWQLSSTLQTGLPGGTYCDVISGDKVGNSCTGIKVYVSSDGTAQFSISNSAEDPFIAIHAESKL

[2] = Inhibition of jack bean alpha-mannosidase assessed as p-nitrophenol release using p-nitrophenyl-alpha-D-mannopyranoside as substrate preincubated for 1 hr before substrate addition at pH 4.5 measured after 10 mins by spectrophotometry; parameters: species or system Canavalia ensiformis
[3] = Inhibition of alpha-galactosidase assessed as p-nitrophenol release using p-nitrophenyl-alpha-D-galactopyranoside as substrate preincubated for 1 hr before substrate addition measured after 10 mins by spectrophotometry
[4] = Inhibition of alpha-glucosidase assessed as p-nitrophenol release using p-nitrophenyl-alpha-D-glucopyranoside as substrate preincubated for 1 hr before substrate addition at pH 6.8 measured after 10 mins by spectrophotometry
[5] = Inhibition of jack bean alpha-mannosidase assessed as p-nitrophenol release using p-nitrophenyl-alpha-D-mannopyranoside as substrate after 15 to 60 mins by spectrophotometry; parameters: species or system Canavalia ensiformis
[6] = Inhibition of alpha-mannosidase

Row | inhibition [1] | IC50 [2] [µM] | inhibition [3] | inhibition [4] | SMILES | IC50 [5] [µM] | IC50 [6] [µM]
1 | inactive | 133 | inactive | inactive | OC[C@H]1O[C@@H]2OCC[C@@]1(O)[C@H]2O | – | –
2 | inactive | 98.3 | inactive | inactive | NC[C@H]1O[C@@H]2OCC[C@@]1(O)[C@H]2O | – | –

Continued, compound first:

Row | SMILES | inhibition [1] | IC50 [2] [µM] | inhibition [3] | inhibition [4] | IC50 [5] [µM] | IC50 [6] [µM]
3 | O[C@H]1[C@H]2[C@H](O)CCCN2C[C@H]1O [TRIDOLGOSIR] | – | – | – | – | 0.1 | –
4 | OC[C@@H]1CC2C(O)C(O)C1(O)CN2Cc1ccccc1 (stereo partly specified) | – | – | – | – | – | 20000
5 | OC[C@@H]1CC2NCC1(O)C(O)C2O (stereo partly specified) | – | – | – | – | – | 9600

From ChEMBL document CHEMBL1914357, “Synthesis of anomeric 1,5-anhydrosugars as conformationally locked selective α-mannosidase inhibitors” (Bioorg Med Chem, 2011)
